In ChEMBL document CHEMBL4229334, “Fluoroquinolone derivatives and their anti-tubercular activities” (Eur J Med Chem, 2018):
Values after ≈ are worked out from the molar mass of the structure shown.

Tests used:
[1] = system: Mycobacterium tuberculosis; experiment: Antitubercular activity against Mycobacterium tuberculosis H37Rv ATCC 27294 by Alamar Blue assay; type: functional
[2] = Cytotoxicity against African green monkey Vero cells after 72 hrs by MTT assay; type: cell-based; conditions: chlorocebus sabaeus
[3] = system: Mycobacterium tuberculosis; experiment: Antitubercular activity against Mycobacterium tuberculosis H37Rv ATCC 27294 assessed as growth inhibition at 6.25 ug/ml by broth dilution assay relative to control; type: functional; conditions: read-out: GI
[4] = system: Mycolicibacterium smegmatis; experiment: Antibacterial activity against Mycobacterium smegmatis by NCCLS method; type: functional
[5] = system: Mycolicibacterium fortuitum; experiment: Antitubercular activity against Mycobacterium fortuitum ATCC 6841 by NCCLS method; type: functional
[6] = system: Mycolicibacterium smegmatis; experiment: Antitubercular activity against Mycobacterium smegmatis after 30 to 32 hrs; type: functional
[7] = system: Mycobacterium tuberculosis; experiment: Antitubercular activity against Mycobacterium tuberculosis H37Rv by serial dilution assay; type: functional
[8] = system: Mycobacterium tuberculosis; experiment: Potency index, ratio of MIC for perfloxacin to MIC for test compound for antitubercular activity against Mycobacterium tuberculosis H37Rv by serial dilution assay; type: functional
[9] = system: Mycobacterium tuberculosis; experiment: Antitubercular activity against non-replicating Mycobacterium tuberculosis H37Rv after 10 days by low oxygen recovery assay; type: functional; conditions: 240 h
[10] = system: Mycobacterium tuberculosis; experiment: Antitubercular activity against replicating Mycobacterium tuberculosis H37Rv by Alamar Blue assay; type: functional
Mycobacterium avium [11] = experiment: Antitubercular activity against Mycobacterium avium; type: functional
[12] = system: Mycolicibacterium fortuitum; experiment: Potency index, ratio of MIC for SPFX to MIC for test compound for antitubercular activity against Mycobacterium fortuitum ATCC 6841 by NCCLS method; type: functional
[13] = system: Mycolicibacterium smegmatis; experiment: Potency index, ratio of MIC for SPFX to MIC for test compound for antibacterial activity against Mycobacterium smegmatis by NCCLS method; type: functional
Mycobacterium xenopi = experiment: Antibacterial activity against Mycobacterium xenopi after 7 days by two fold dilution assay; type: functional; conditions: 168 h
[14] = system: Mycolicibacterium smegmatis; experiment: Antibacterial activity against Mycobacterium smegmatis after 7 days by two fold dilution assay; type: functional; conditions: 168 h
[15] = system: Mycobacterium intracellulare; experiment: Antibacterial activity against Mycobacterium intracellulare after 7 days by two fold dilution assay; type: functional; conditions: 168 h
Mycobacteroides chelonae = experiment: Antibacterial activity against Mycobacterium chelonae after 7 days by two fold dilution assay; type: functional; conditions: 168 h
[16] = system: Mycobacterium tuberculosis; experiment: Potency index, ratio of MIC for MXFX to MIC for test compound for antitubercular activity against non-replicating Mycobacterium tuberculosis H37Rv after 10 days by low oxygen recovery assay; type: functional
Mycobacterium avium [17] = experiment: Antitubercular activity against Mycobacterium avium after 14 days by two fold agar dilution method; type: functional; conditions: 336 h
[18] = system: Mycobacterium tuberculosis; experiment: Potency index, ratio of MIC for LVFX to MIC for test compound for antitubercular activity against rifampicin-sensitive Mycobacterium tuberculosis after 21 days by two fold agar dilution method; type: functional
[19] = system: Mycobacterium intracellulare; experiment: Potency index, ratio of MIC for GTFX to MIC for test compound for antitubercular activity against Mycobacterium intracellulare after 14 days by two fold agar dilution method; type: functional
Mycobacterium avium [20] = experiment: Potency index, ratio of MIC for rifampicin to MIC for test compound for antitubercular activity against Mycobacterium avium after 14 days by two fold agar dilution method; type: functional
[21] = system: Mycobacterium tuberculosis; experiment: Potency index, ratio of MIC for rifampicin to MIC for test compound for antitubercular activity against rifampicin-sensitive Mycobacterium tuberculosis after 21 days by two fold agar dilution method; type: functional
[22] = system: Mycobacterium intracellulare; experiment: Potency index, ratio of MIC for isoniazid to MIC for test compound for antitubercular activity against Mycobacterium intracellulare after 14 days by two fold agar dilution method; type: functional
[23] = system: Mycobacterium tuberculosis; experiment: Antitubercular activity against rifampicin-sensitive Mycobacterium tuberculosis after 21 days by two fold agar dilution method; type: functional; conditions: 504 h
Mycobacterium avium [24] = experiment: Potency index, ratio of MIC for isoniazid to MIC for test compound for antitubercular activity against Mycobacterium avium after 14 days by two fold agar dilution method; type: functional
[25] = system: Mycobacterium tuberculosis; experiment: Potency index, ratio of MIC for isoniazid to MIC for test compound for antitubercular activity against rifampicin-sensitive Mycobacterium tuberculosis after 21 days by two fold agar dilution method; type: functional
Mycobacterium avium [26] = experiment: Potency index, ratio of MIC for LVFX to MIC for test compound for antitubercular activity against Mycobacterium avium after 14 days by two fold agar dilution method; type: functional
[27] = system: Mycobacterium intracellulare; experiment: Antitubercular activity against Mycobacterium intracellulare after 14 days by two fold agar dilution method; type: functional; conditions: 336 h
[28] = system: Mycobacterium intracellulare; experiment: Potency index, ratio of MIC for LVFX to MIC for test compound for antitubercular activity against Mycobacterium intracellulare after 14 days by two fold agar dilution method; type: functional
Mycobacterium avium [29] = experiment: Potency index, ratio of MIC for GTFX to MIC for test compound for antitubercular activity against Mycobacterium avium after 14 days by two fold agar dilution method; type: functional
[30] = system: Mycobacterium tuberculosis; experiment: Antitubercular activity against Mycobacterium tuberculosis H37Rv after 21 days by broth dilution assay; type: functional; conditions: 504 h
[31] = system: Mycobacterium tuberculosis; experiment: Antibacterial activity against Mycobacterium tuberculosis H37Rv after 7 days by two fold dilution assay; type: functional; conditions: 168 h
Corynebacterium [32] = experiment: Antibacterial activity against Corynebacterium ATCC-25365 after 18 hrs by broth microdilution assay; type: functional; conditions: ATCC-25365, 18 h
Corynebacterium [33] = experiment: Antibacterial activity against Corynebacterium ATCC-29355 after 18 hrs by broth microdilution assay; type: functional; conditions: ATCC-29355, 18 h
Staphylococcus aureus = experiment: Antibacterial activity against Staphylococcus aureus after 18 hrs by broth microdilution assay; type: functional
[34] = Cytotoxicity against African green monkey Vero cells after 96 hrs by MTT assay; type: cell-based; conditions: chlorocebus sabaeus
[35] = Selectivity index, ratio of IC50 for African green monkey Vero cells to MIC for Mycobacterium tuberculosis H37Rv; type: toxicity
[36] = system: Mycolicibacterium smegmatis; experiment: Potency index, ratio of MIC for 8-OMe CPFX to MIC for test compound for antitubercular activity against Mycobacterium smegmatis CMCC 93202 after 72 hrs; type: functional
[37] = system: Mycolicibacterium smegmatis; experiment: Potency index, ratio of MIC for CPFX to MIC for test compound for antitubercular activity against Mycobacterium smegmatis CMCC 93202 after 72 hrs; type: functional
[38] = system: Mycolicibacterium smegmatis; experiment: Potency index, ratio of MIC for MXFX to MIC for test compound for antitubercular activity against Mycobacterium smegmatis CMCC 93202 after 72 hrs; type: functional
[39] = system: Mycolicibacterium smegmatis; experiment: Potency index, ratio of MIC for rifampicin to MIC for test compound for antitubercular activity against Mycobacterium smegmatis CMCC 93202 after 72 hrs; type: functional
[40] = system: Mycolicibacterium smegmatis; experiment: Antitubercular activity against Mycobacterium smegmatis CMCC 93202 after 72 hrs; type: functional; conditions: CMCC 93202, 72 h

With `CC1COc2c(N3CCN(S(=O)(=O)c4ccc([N+](=O)[O-])cc4)CC3)c(F)cc3c(=O)c(C(=O)O)cn1c23` (stereo not drawn) the MIC [1] was 2.23 µg/mL (≈ 4.19 µM), the CC50 at 72 h [2] was over 33 µg/mL and the inhibition of growth at 6.25 µg/mL [3] was 99%.
Compound `C[C@@H]1CN(c2c(F)c(N)c3c(=O)c(C(=O)O)cn(C4CC4)c3c2F)C[C@H](C)N1` [SPARFLOXACIN] has an MIC [4] of 0.13 µg/mL (≈ 0.331 µM) and an MIC [5] of 0.06 µg/mL (≈ 0.153 µM).
`CCn1cc(C(=O)N/N=C/c2cccc(O)c2)c(=O)c2cc(F)c(N3CCN(C)CC3)cc21` showed an MIC [6] of 27.2 µM (≈ 12.3 µg/mL).
`CCn1cc(C(=O)O)c(=O)c2cc(F)c(N3CCN(C)CC3)cc21` [PEFLOXACIN] gave an MIC [7] of 4 µg/mL (≈ 12 µM).
For `CCn1cc(C(=O)O)c(=O)c2cc(F)c(OCCOCCOCCOCCOCCOc3cc4c(cc3F)c(=O)c(C(=O)O)cn4CC)cc21`, the MIC [7] was 0.8 µg/mL (≈ 1.14 µM) and the Ratio [8] was 5.
Compound `CCn1cc(C(=O)N/N=C/c2c(Cl)cccc2Cl)c(=O)c2cc(F)c(N3CCN(C)CC3)cc21` has an MIC [6] of 27 µM (≈ 13.6 µg/mL).
In the case of `COc1c(N2C[C@@H]3CCCN[C@@H]3C2)c(F)cc2c(=O)c(C(=O)O)cn(C3CC3)c12` [MOXIFLOXACIN], the MIC [9] is reported as 9.19 µg/mL (≈ 22.9 µM) and the MIC [10] is reported as 0.1 µg/mL (≈ 0.249 µM).
`O=C(O)c1cn(-c2ccc(F)cc2)c2cc(N3CCNCC3)c(F)cc2c1=O` [SARAFLOXACIN] gave an MIC (Mycobacterium avium [11]) of 6.25 µg/mL (≈ 16.2 µM).
In the case of `CC1(CN)CCN(c2cc3c(cc2F)c(=O)c(C(=O)O)cn3C2CC2)C1` (stereo not drawn), the MIC [4] is reported as 0.06 µg/mL (≈ 0.167 µM), the MIC [5] is reported as at most 0.03 µg/mL and the Ratio [12] is reported as “>=2”. The Ratio [13] was “>=2”.
`CCn1cc(C(=O)N/N=C2\C(=O)N(Cc3ccccc3)c3ccccc32)c(=O)c2ccc(C)nc21` gave an MIC (Mycobacterium xenopi) of 0.625 µg/mL (≈ 1.34 µM), an MIC [14] of 0.625 µg/mL (≈ 1.34 µM) and an MIC [15] of 0.625 µg/mL (≈ 1.34 µM). The MIC (Mycobacteroides chelonae) was 0.625 µg/mL (≈ 1.34 µM).
For `Cc1c(N2CCC(=CO)CC2)c(F)cc2c(=O)c(C(=O)O)cn(C3CC3)c12`, the MIC [9] was 2.95 µg/mL (≈ 7.92 µM), the MIC [10] was 0.1 µg/mL (≈ 0.269 µM) and the Ratio [16] was 3.1.
In the case of `C[C@H]1COc2c(N3C[C@H]4CCCN[C@H]4C3)c(F)cc3c(=O)c(C(=O)O)cn1c23`, the MIC (Mycobacterium avium [17]) is reported as 0.2 to 1.7 µg/mL (≈ 0.516 to 4.39 µM), the Ratio [18] is reported as “>=6.5 - 165” and the Ratio [19] is reported as 1.9 - 8.2. For the same compound, the Ratio (Mycobacterium avium [20]) was 3.2 - 64.2, the Ratio [21] was “>=6.5 - 165” and the Ratio [22] was 1.9 - 8.2. The MIC [23] was 0.2 to 1.7 µg/mL (≈ 0.516 to 4.39 µM), the Ratio (Mycobacterium avium [24]) was 3.2 - 64.2 and the Ratio [25] was “>=6.5 - 165”. For the same compound, the Ratio (Mycobacterium avium [26]) was 3.2 - 64.2, the MIC [27] was 0.2 to 1.7 µg/mL (≈ 0.516 to 4.39 µM) and the Ratio [28] was 1.9 - 8.2. The Ratio (Mycobacterium avium [29]) was 3.2 - 64.2.
In the case of `CO[C@H]1/C=C/O[C@@]2(C)Oc3c(C)c(O)c4c(O)c(c(/C=N/N5CCN(C)CC5)c(O)c4c3C2=O)NC(=O)/C(C)=C\C=C\[C@H](C)[C@H](O)[C@@H](C)[C@@H](O)[C@@H](C)[C@H](OC(C)=O)[C@@H]1C` [RIFAMPIN], the MIC [30] is reported as 1 µg/mL (≈ 1.22 µM), the MIC [31] is reported as 0.39 µg/mL (≈ 0.474 µM) and the CC50 at 72 h [2] is reported as 7.8 µg/mL (≈ 9.48 µM).
Compound `O=C(O)c1cn(-c2ccc(O)cc2)c2cc(N3CCNCC3)c(F)cc2c1=O` has an MIC (Mycobacterium avium [11]) of 6.25 µg/mL (≈ 16.3 µM).
Compound `O=C(O)c1cn(C2CC2)c2cc(N3CCNCC3)c(F)cc2c1=O` [CIPROFLOXACIN] has an MIC (Corynebacterium [32]) of 1 to 2 µg/mL (≈ 3.02 to 6.04 µM), an MIC (Corynebacterium [33]) of 1 to 2 µg/mL (≈ 3.02 to 6.04 µM) and an MIC (Staphylococcus aureus) of 1 to 2 µg/mL (≈ 3.02 to 6.04 µM).
Compound `Cn1cc(C(=O)O)c(=O)c2cc(F)c(N3CCN(c4nnc(SCC(=O)c5ccc([N+](=O)[O-])cc5)s4)CC3)cc21` has an MIC [30] of 0.5 µg/mL (≈ 0.855 µM), a CC50 at 96 h [34] of over 6.1 µg/mL and an MIC (Corynebacterium [32]) of 0.5 to 1 µg/mL (≈ 0.855 to 1.71 µM). The MIC (Corynebacterium [33]) was 0.5 to 1 µg/mL (≈ 0.855 to 1.71 µM), the MIC (Staphylococcus aureus) was 0.5 to 1 µg/mL (≈ 0.855 to 1.71 µM) and the selectivity ratio [35] was over 12.2.
With `COc1ccc2cc(C(=O)CN3CCN(c4c(F)cc5c(=O)c(C(=O)O)cn(C6CC6)c5c4OC)CC3)c(=O)oc2c1` the Ratio [36] was 2 - 8, the Ratio [37] was 2 - 8 and the Ratio [38] was 2 - 8. For the same compound, the Ratio [39] was 2 - 8 and the MIC [40] was 0.25 µg/mL (≈ 0.433 µM).
`CC1COc2c(N3CCN(C)CC3)c(F)cc3c(=O)c(C(=O)O)cn1c23` (stereo not drawn) [OFLOXACIN] gave an inhibition of growth at 6.25 µg/mL [3] of 62 to 96%.
`NNC(=O)c1ccncc1` [ISONIAZID] showed an MIC [30] of 1.5 µg/mL (≈ 10.9 µM), an MIC [31] of 0.05 µg/mL (≈ 0.365 µM) and an MIC (Mycobacterium xenopi) of 12.5 µg/mL (≈ 91.1 µM). For the same compound, the MIC [14] was 12.5 µg/mL (≈ 91.1 µM), the CC50 at 72 h [2] was 32 µg/mL (≈ 233 µM) and the MIC [15] was 12.5 µg/mL (≈ 91.1 µM). For the same compound, the MIC (Mycobacteroides chelonae) was 12.5 µg/mL (≈ 91.1 µM).
